Measured values as given in PMC3227451, “Structure-based development of novel sirtuin inhibitors” (Aging (Albany NY), 2011).

What was measured:
[1] = target: T1, Sirt2 (α-tubulin Lys40 deacetylation) (Homo sapiens, UniProt Q8IXJ6); experiment: Tubulin deacetylation assay in HEK cell lysates with added Sirt2; assay type: biochemical; conditions: 100 μM compound, 1 μg Sirt2
T1 construct: Human gene fragment comprising Sirt2 residues 34-356; His-tag with linker comprising a TEV protease cleavage site (N, cleaved yes); made in house; host or cells: E. coli Rosetta2; the protein was added to HEK 293T cell lysate
T1 sequence (Q8IXJ6 34-356): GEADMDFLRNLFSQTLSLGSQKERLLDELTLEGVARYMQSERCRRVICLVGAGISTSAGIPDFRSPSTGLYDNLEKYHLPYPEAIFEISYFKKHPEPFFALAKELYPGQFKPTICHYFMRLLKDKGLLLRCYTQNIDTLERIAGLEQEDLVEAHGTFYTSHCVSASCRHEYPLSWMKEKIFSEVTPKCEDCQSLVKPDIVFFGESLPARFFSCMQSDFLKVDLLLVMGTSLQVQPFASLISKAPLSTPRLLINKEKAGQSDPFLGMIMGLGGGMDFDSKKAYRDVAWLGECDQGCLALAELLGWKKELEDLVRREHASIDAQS
Experimental: Our novel compounds 3 and 4 are potent and specific Sirt2 inhibitors in vitro, and we next tested the effect of 4 (compound 3 is likely to be sensitive to esterase activity in lysates) on the Sirt2-dependent deacetylation of an in vivo substrate in a physiological environment. The acetylation levels of the Sirt2-deacetylation site Lys40 in α-tubulin [12] were analyzed in HEK cell lysates by using an acetyl-Lys40 specific antibody (Figure 4a). […] Thus, compound 4 is an inhibitor for the physiological α-tubulin deacetylation activity of Sirt2.
HEK 293T cells were grown in DMEM medium (PAN Biotech) supplemented with 10% fetal bovine serum (PAN Biotech) at 37°C and 5% CO2. Cells were harvested, washed with PBS, and resuspended and lysed using hypotonic buffer (10mM Tris-HCl, pH 8.0, 3mM KCl) supplemented with protease inhibitors cocktail. Cell debris was removed by centrifugation (10,000g, 10 minutes) at 4°C, and 50μl reaction were prepared with identical amounts of cell lysate and either 100 μM compound 4, 1 μg Sirt2, or both. All samples further contained the same amount of DMSO (to account for the solvent of the stock of 4) and 25 mM HEPES (pH 7.5; to compensate for the solvent of the NAD^+ stock). […]

[2] = target: T2, Sirt5 (Homo sapiens, UniProt Q9NXA8); experiment: Fluor-de-Lys peptide deacetylation assay, Sirt5; assay type: biochemical
T2 construct: Sirt5 residues 34-302; His-tag with linker comprising a TEV protease cleavage site (N); made in house
T2 sequence (Q9NXA8 34-302): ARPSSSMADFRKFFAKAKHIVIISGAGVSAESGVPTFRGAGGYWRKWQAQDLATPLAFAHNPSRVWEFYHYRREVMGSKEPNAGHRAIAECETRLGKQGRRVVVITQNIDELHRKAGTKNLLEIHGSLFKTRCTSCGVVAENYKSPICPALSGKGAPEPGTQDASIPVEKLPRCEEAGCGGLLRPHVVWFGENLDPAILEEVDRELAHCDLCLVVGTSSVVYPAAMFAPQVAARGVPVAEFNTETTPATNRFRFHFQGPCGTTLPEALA
Outline: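 E. coli-expressed human Sirtuins with 0.5 mM NAD+ and 0.1 mM Fluor-de-Lys peptide: FdL-2 (QPK(acetyl-K)) for Sirt3, FdL-1 (RHK(acetyl-K)) for Sirt5. Compounds at 100 μM final; 30 min at 37 °C, then trypsin developer for 45 min at room temperature.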

## CC12Cc3cnc(-c4ccccc4)nc3CC1CCC1C2CCC2(C)C1CCC2(C)O (centres unmarked) [CSC13, 1,11a,13a-trimethyl-8-phenyl-2,3,3a,3b,4,5,5a,6,11,11a,11b,12,13,13a-tetradecahydro-1H-cyclopenta[5,6]naphtho[1,2-g]quinazolin-1-ol]
[1]
  effect on Sirt2-dependent α-tubulin Lys40 deacetylation: the deacetylation effect was decreased
[2]
  Effect on the activity of Sirt5: --- (key: inhibition: significant inhibitory effects (>25% loss of activity); ---: no such effect)
